The results in this text go back to US10254273B2, “Method and kit for assessment of sodium channel-related anti- or pro-arrhythmic potential of compounds” (RUPRECHT-KARLS-UNIVERSITAET HEIDELBERG, priority 2014, dated 2019).

SMILES strings stand for the structures.

The target in the assay is T1, cardiac sodium channels Nav1.5 in the intercalated discs of cardiomyocytes (Mus musculus, UniProt Q9JJV9).
T1 construct: The heart was harvested and perfused in the Langendorff system; endogenous in cells; host or cells: primary adult mouse cardiomyocytes isolated from heart by Langendorff perfusion
Kind of assay: Nav1.5 density change in intercalated discs of cardiomyocytes (immunocytochemistry, confocal microscopy). Particulars: test compound at a concentration of 100 μM or higher vs. untreated sample, p<0.05. The format is cell-based.

T1 sequence (Q9JJV9 whole entry, the tested form may be a part): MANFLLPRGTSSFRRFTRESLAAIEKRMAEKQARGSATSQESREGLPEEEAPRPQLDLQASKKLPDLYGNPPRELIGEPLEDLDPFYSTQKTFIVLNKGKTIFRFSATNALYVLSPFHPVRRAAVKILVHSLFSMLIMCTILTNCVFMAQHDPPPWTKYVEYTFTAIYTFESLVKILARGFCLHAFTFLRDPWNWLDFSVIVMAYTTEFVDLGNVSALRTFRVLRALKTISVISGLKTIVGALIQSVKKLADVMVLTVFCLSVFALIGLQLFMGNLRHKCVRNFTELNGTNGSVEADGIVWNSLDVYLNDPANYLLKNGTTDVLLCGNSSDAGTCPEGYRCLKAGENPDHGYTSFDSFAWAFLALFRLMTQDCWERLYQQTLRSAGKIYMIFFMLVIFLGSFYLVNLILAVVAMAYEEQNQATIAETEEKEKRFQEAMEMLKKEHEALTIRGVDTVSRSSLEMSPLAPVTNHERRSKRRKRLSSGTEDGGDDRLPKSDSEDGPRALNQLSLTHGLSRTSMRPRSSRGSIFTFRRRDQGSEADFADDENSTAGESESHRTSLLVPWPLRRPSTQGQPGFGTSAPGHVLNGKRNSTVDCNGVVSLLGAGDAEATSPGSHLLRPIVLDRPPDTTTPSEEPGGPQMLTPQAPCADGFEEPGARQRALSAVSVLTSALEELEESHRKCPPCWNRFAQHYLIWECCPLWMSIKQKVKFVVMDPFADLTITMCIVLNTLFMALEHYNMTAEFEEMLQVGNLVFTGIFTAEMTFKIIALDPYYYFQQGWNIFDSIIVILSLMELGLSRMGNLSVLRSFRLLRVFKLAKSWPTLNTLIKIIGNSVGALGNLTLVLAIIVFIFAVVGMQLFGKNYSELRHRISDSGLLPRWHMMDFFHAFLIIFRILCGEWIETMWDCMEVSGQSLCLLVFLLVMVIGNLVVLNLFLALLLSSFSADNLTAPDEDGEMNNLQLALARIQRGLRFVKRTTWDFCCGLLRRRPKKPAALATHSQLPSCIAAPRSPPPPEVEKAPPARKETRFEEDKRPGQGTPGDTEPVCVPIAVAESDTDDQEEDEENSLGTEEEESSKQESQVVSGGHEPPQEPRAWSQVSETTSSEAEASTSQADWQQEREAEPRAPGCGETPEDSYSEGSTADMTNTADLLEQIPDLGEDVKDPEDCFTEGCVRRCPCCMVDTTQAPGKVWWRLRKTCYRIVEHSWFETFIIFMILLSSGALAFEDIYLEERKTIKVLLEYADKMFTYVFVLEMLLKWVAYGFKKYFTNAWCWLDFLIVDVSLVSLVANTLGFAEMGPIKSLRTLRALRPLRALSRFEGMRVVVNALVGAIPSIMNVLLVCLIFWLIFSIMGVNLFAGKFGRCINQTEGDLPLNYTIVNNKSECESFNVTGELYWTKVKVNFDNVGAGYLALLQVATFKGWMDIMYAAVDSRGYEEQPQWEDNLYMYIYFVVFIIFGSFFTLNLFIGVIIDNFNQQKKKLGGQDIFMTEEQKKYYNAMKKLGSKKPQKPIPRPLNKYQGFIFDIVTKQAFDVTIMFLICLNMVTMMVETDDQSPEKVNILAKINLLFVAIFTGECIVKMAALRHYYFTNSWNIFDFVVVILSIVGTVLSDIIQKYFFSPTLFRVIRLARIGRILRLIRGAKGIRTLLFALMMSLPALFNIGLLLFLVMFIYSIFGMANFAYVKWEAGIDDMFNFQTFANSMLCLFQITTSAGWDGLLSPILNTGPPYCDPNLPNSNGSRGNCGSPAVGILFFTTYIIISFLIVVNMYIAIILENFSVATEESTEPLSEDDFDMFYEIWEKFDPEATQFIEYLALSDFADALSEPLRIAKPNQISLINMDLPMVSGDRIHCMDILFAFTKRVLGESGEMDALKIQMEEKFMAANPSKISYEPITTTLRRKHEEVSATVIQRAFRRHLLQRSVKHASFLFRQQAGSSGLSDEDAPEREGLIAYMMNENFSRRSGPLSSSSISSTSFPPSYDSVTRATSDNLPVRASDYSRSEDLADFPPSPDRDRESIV
Experimental: Briefly, the mice were injected with 200 IU heparin i.p. prior to sacrifice. The thoracic chamber was opened and a cannula with perfusion solution was inserted from the atria. The heart was harvested and perfused in the Langendorff system with Perfusion Buffer at 37° C. for 5 min, followed by Digestion Buffer until the heart muscle was pale and some signs of extracellular matrix dissociation appeared. The heart was perfused for additional 5 min with Perfusion Buffer to stop the dissociation. The cardiomyocytes were mechanically dissociated in TB-A and then plated on ECM-coated (Sigma cat. no. E-1270) petri dish (Zell-Kontakt cat. no. 5160-30). […]
Confocal images of red and green immunofluorescence of stained cardiomyocytes were acquired, e.g. on a Leica confocal laser scanning unit TCS NT, which is coupled to a Leica DM IRB microscope. […] Fluorescence signals of Nav1.5 staining were recorded at 20%, 50% and 80% laser intensity, and fluorescence signals of cadherin was recorded at 80% laser intensity to generate the Region of Interest (ROI) (modified from Yampolsky et al., 2010, a). All images were digitally saved and later processed with Image) (NIH, Bethesda, Md., USA) software using proprietary quantification methods and standard Image) plug-ins.
ROI were set as defined by the fluorescence signals of the cadherin staining, which represented the intercalated discs. […]

As for `O=C(NCC1CCCCN1)c1cc(OCC(F)(F)F)ccc1OCC(F)(F)F` (stereo not shown) [flecainide], the “change of the Nav1.5 density in comparison to the untreated sample” value was “significant change”.
